Here are results for 15 compounds from US12410171B2, “Tropomyosin receptor kinase (TRK) degradation compounds and methods of use” (Cullgen (Shanghai), Inc., priority 2020, dated 2025).

Molecules are shown by their SMILES.

The target of this assay is T1, TPM3-TRKA fusion protein (Homo sapiens, UniProt P04629).
T1 construct: The resulted chimeric proteins always retain the kinase domain of TRK proteins; TPM3 (fusion partner, N-terminal part of tropomyosin alpha-3, P06753); endogenous in cells; host or cells: KM12 colon cancer cells; the other entry of the earlier key: TPM3 (P06753, Tropomyosin alpha-3 chain)
T1 sequence (P04629 with tags, fused parts or gaps): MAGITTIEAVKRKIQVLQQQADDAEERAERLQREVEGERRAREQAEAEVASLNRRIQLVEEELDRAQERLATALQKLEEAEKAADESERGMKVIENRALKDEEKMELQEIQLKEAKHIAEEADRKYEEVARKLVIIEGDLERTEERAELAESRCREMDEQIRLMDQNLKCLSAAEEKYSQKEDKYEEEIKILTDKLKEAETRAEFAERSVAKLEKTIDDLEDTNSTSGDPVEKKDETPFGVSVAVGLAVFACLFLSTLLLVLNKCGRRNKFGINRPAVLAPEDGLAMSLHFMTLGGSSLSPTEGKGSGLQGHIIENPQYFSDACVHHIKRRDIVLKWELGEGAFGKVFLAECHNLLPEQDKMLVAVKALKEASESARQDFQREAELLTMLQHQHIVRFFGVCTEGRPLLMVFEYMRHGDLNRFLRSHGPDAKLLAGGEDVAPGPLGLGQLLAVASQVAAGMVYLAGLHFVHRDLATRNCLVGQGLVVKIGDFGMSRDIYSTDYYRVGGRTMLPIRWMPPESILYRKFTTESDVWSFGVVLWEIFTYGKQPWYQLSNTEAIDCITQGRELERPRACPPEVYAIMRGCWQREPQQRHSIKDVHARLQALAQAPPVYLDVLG
In words: TPM3-TRKA fusion protein levels in KM12 cells (Western blot). The class given is cell-based. Conditions: for percent degradation of TPM3-TRKA protein at 0.01 µM: 16 h, TPM3-TRKA degradation in KM12 cells at 10 nM compound, category of percentage degradation, read-out: Degradation (at 10 nM). The procedure: KM12 cells were treated with DMSO or indicated compounds at 100 nM for 16 hours.
KM12 cells were treated with DMSO or indicated compounds at 0. 1 nM, 1 nM or 10 nM for 16 hours.
KM12 cells were treated with DMSO or indicated compounds at various concentrations for 16 hours.
KM12 cells were treated with DMSO or indicated compounds at various concentrations for 4 hours.
KM12 cells (a cancer model comprising a colon cancer cell line) were treated with DMSO or indicated compounds at various concentrations for 4 hours.
KM12 cells were treated with heterobifunctional compounds or their corresponding control compounds at 10 nM or 100 nM for 16 hours.
KM12 cells were treated with heterobifunctional compounds or their corresponding control compounds at 0.4-30 nM for 8-16 hours. […] Cells were authenticated using the short tandem repeat (STR) assays. […] Stable cell lines were established by lentivirus transduction, selected and maintained in medium containing 1 μg/mL puromycin (Beyotime Biotechnology).
Cultured cells were washed with cold PBS once and lysed in cold RIPA buffer supplemented with protease inhibitors and phosphatase inhibitors (Beyotime Biotechnology). The solutions were then incubated at 4° C. for 30 minutes with gentle agitation to fully lyse cells. For tumor tissues, tumors were cut into small pieces, milled with cold RIPA buffer using a mechanical homogenizer and lysed for 1 hour at 4° C. Cell lysates were centrifuged at 13,000 rpm for 10 minutes at 4° C. and pellets were discarded. Total protein concentrations in the lysates were determined by BCA assays (Beyotime Biotechnology). Cell lysates were mixed with Laemmli loading buffer to 1× and heated at 99° C. for 5 min. Proteins were resolved on SDS-PAGE and visualized by chemiluminescence. Images were taken by a ChemiDoc MP Imaging system (Bio-Rad). Protein bands were quantitated using the software provided by Bio-Rad.
(In western blotting, separated proteins are transferred to a membrane and probed.)

Turning to `Cc1ncsc1-c1ccc(CNC(=O)[C@@H]2C[C@@H](O)CN2C(=O)[C@@H](NC(=O)CCOCCC(=O)N2CCN(c3ccc(C(=O)Nc4n[nH]c5ccc(Cc6cc(F)cc(F)c6)cc45)c(NC4CCOCC4)c3)CC2)C(C)(C)C)cc1` [CPD-048, (28,4R)-1-((S)-2-(3-(3-(4-(4-((5-(3,5-Difluorobenzyl)-1H-indazol-3-yl)carbamoyl)-3-((tetrahydro-2H-pyran-4-yl)amino)phenyl)piperazin-1-yl)-3-oxopropoxy)propanamido)-3,3-dimethylbutanoyl)-4-hydroxy-N-(4-(4-methylthiazol-5-yl)benzyl)pyrrolidine-2-carboxamide], the percent degradation of TPM3-TRKA protein at 0.01 µM was less than 50%.

As for `O=C1CCC(N2C(=O)c3cccc(NCCCCCCC(=O)N4CCN(c5ccc(C(=O)Nc6n[nH]c7ccc(Cc8cc(F)cc(F)c8)cc67)c(NC6CCOCC6)c5)CC4)c3C2=O)C(=O)N1` (stereo not drawn) [CPD-049, N—(S-(3,5-Difluorobenzyl)-1H-indazol-3-yl)-4-(4-(7-((2-(2,6-dioxopiperidin-3-yl)-1,3-dioxoisoindolin-4-yl)amino)heptanoyl)piperazin-1-yl)-2-((tetrahydro-2H-pyran-4-yl)amino)benzamide], the percent degradation of TPM3-TRKA protein at 0.01 µM is greater than 80%.

As for `O=C1CCC(N2C(=O)c3cccc(NCCCCC(=O)N4CCN(c5ccc(C(=O)Nc6n[nH]c7ccc(Cc8cc(F)cc(F)c8)cc67)c(NC6CCOCC6)c5)CC4)c3C2=O)C(=O)N1` (stereo not shown) [CPD-050, N-(5-(3,5-Difluorobenzyl)-1H-indazol-3-yl)-4-(4-(5-((2-(2,6-dioxopiperidin-3-yl)-1,3-dioxoisoindolin-4-yl)amino)pentanoyl)piperazin-1-yl)-2-((tetrahydro-2H-pyran-4-yl)amino)benzamide], the percent degradation of TPM3-TRKA protein at 0.01 µM is greater than 80%.

Turning to `O=C1CCC(N2C(=O)c3cccc(NCCC(=O)N4CCN(c5ccc(C(=O)Nc6n[nH]c7ccc(Cc8cc(F)cc(F)c8)cc67)c(NC6CCOCC6)c5)CC4)c3C2=O)C(=O)N1` (stereo not shown) [CPD-051, N-(5-(3,5-Difluorobenzyl)-1H-indazol-3-yl)-4-(4-(3-((2-(2,6-dioxopiperidin-3-yl)-1,3-dioxoisoindolin-4-yl)amino)propanoyl)piperazin-1-yl)-2-((tetrahydro-2H-pyran-4-yl)amino)benzamide], the percent degradation of TPM3-TRKA protein at 0.01 µM was greater than 80%.

Consider `O=C1CCC(N2C(=O)c3cccc(NCCCCCCCC(=O)N4CCN(c5ccc(C(=O)Nc6n[nH]c7ccc(Cc8cc(F)cc(F)c8)cc67)c(NC6CCOCC6)c5)CC4)c3C2=O)C(=O)N1` (stereo not shown) [CPD-052, N-(5-(3,5-Difluorobenzyl)-1H-indazol-3-yl)-4-(4-(8-((2-(2,6-dioxopiperidin-3-yl)-1,3-dioxoisoindolin-4-yl)amino)octanoyl)piperazin-1-yl)-2-((tetrahydro-2H-pyran-4-yl)amino)benzamide], for which the percent degradation of TPM3-TRKA protein at 0.01 µM was greater than 80%.

Turning to `O=C1CCC(N2C(=O)c3cccc(NCCOCCOCCOCCOCCOCCC(=O)N4CCN(c5ccc(C(=O)Nc6n[nH]c7ccc(Cc8cc(F)cc(F)c8)cc67)c(NC6CCOCC6)c5)CC4)c3C2=O)C(=O)N1` (stereo not shown) [CPD-054, N-(5-(3,5-Difluorobenzyl)-1H-indazol-3-yl)-4-(4-(1-((2-(2,6-dioxopiperidin-3-yl)-1,3-dioxoisoindolin-4-yl)amino)-3,6,9,12, 15-pentaoxaoctadecan-18-oyl)piperazin-1-yl)-2-((tetrahydro-2H-pyran-4-yl)amino)benzamide], the percent degradation of TPM3-TRKA protein at 0.01 µM is greater than 80%.

As for `O=C1CCC(N2C(=O)c3cccc(NCC(=O)N4CCN(c5ccc(C(=O)Nc6n[nH]c7ccc(Cc8cc(F)cc(F)c8)cc67)c(NC6CCOCC6)c5)CC4)c3C2=O)C(=O)N1` (stereo not shown) [CPD-055, N-(5-(3,5-Difluorobenzyl)-1HI-indazol-3-yl)-4-(4-((2-(2,6-dioxopiperidin-3-yl)-1,3-dioxoisoindolin-4-yl)glycyl)piperazin-1-yl)-2-((tetrahydro-2H-pyran-4-yl)amino)benzamide], the percent degradation of TPM3-TRKA protein at 0.01 µM was greater than 80%.

For `O=C1CCC(N2C(=O)c3cccc(NCCCCCC(=O)N4CCN(c5ccc(C(=O)Nc6n[nH]c7ccc(Cc8cc(F)cc(F)c8)cc67)c(NC6CCOCC6)c5)CC4)c3C2=O)C(=O)N1` (stereo not shown) [CPD-056, N-(5-(3,5-Difluorobenzyl)-1H-indazol-3-yl)-4-(4-(6-((2-(2,6-dioxopiperidin-3-yl)-1,3-dioxoisoindolin-4-yl)amino)hexanoyl)piperazin-1-yl)-2-((tetrahydro-2H-pyran-4-yl)amino)benzamide], the percent degradation of TPM3-TRKA protein at 0.01 µM is greater than 80%.

For the compound `Cc1ncsc1-c1ccc(CNC(=O)[C@@H]2C[C@@H](O)CN2C(=O)[C@@H](NC(=O)COCCOCCOCC(=O)N2CCN(c3ccc(C(=O)Nc4n[nH]c5ccc(Cc6cc(F)cc(F)c6)cc45)c(NC4CCOCC4)c3)CC2)C(C)(C)C)cc1` [CPD-058, (25,4R)-1-((S)-2-(tert-butyl)-14-(4-(4-((5-(3,5-Difluorobenzyl)-1H-indazol-3-yl)carbamoyl)-3-((tetrahydro-2H-pyran-4-yl)amino)phenyl)piperazin-1-yl)-4,14-dioxo-6,9,12-trioxa-3-azatetradecanoyl)-4-hydroxy-N-(4-(4-methylthiazol-5-yl)benzyl)pyrrolidine-2-carboxamide], the percent degradation of TPM3-TRKA protein at 0.01 µM is less than 50%.

In the case of `O=C(CN1CCN(c2cccc(-c3cnc4ccc(N5CCC[C@@H]5c5cccc(F)c5)nn34)n2)CC1)NCCOCCOCCOCCNc1cccc2c1C(=O)N(C1CCC(=O)NC1=O)C2=O` (stereo partly drawn) [CPD-059, N-(2-(2-(2-(2-((2-(2,6-Dioxopiperidin-3-yl)-1,3-dioxoisoindolin-4-yl)amino)ethoxy)ethoxy)ethoxy)ethyl)-2-(4-(6-(6-((R)-2-(3-fluorophenyl)pyrrolidin-1-yl)imidazo[1,2-b]pyridazin-3-yl)pyridin-2-yl)piperazin-1-yl)acetamide], the percent degradation of TPM3-TRKA protein at 0.01 µM is greater than 80%.

For the compound `O=C(CN1CCN(c2cccc(-c3cnc4ccc(N5CCC[C@@H]5c5cccc(F)c5)nn34)n2)CC1)NCCNc1cccc2c1C(=O)N(C1CCC(=O)NC1=O)C2=O` (stereo partly drawn) [CPD-060, N-(2-((2˜ (2,6-Dioxopiperidin-3-yl)-1,3-dioxoisoindolin-4-yl)amino)ethyl)-2-(4-(6-(6-((R)-2-(3-fluorophenyl)pyrrolidin-1-yl)imidazo[1,2-b]pyridazin-3-yl)pyridin-2-yl)piperazin-1-yl)acetamide], the percent degradation of TPM3-TRKA protein at 0.01 µM is greater than 80%. The TPM3-TRKA protein levels entry (KM12 cells, 100 nM, indicated incubation time, Western blot (FIG. 2)) is “rapidly reduced TPM3-TRKA protein levels”.

On to `Cc1ncsc1-c1ccc(CNC(=O)[C@@H]2C[C@@H](O)CN2C(=O)[C@@H](NC(=O)CCCCCCCNC(=O)CN2CCN(c3ccc(C(=O)Nc4n[nH]c5ccc(Cc6cc(F)cc(F)c6)cc45)c(NC4CCOCC4)c3)CC2)C(C)(C)C)cc1` [CPD-061, (2S,4R)-1-((S)-2-(8-(2-(4-(4-((5-(3,5-Difluorobenzyl)-1H-indazol-3-yl)carbamoyl)-3-((tetrahydro-2H-pyran-4-yl)amino)phenyl)piperazin-1-yl)acetamido)octanamido)-3,3-dimethylbutanoyl)-4-hydroxy-N-(4-(4-methylthiazol-5-yl)benzyl)pyrrolidine-2-carboxamide], for which the percent degradation of TPM3-TRKA protein at 0.01 µM was less than 50%.

For `O=C(CN1CCN(c2ccc(C(=O)Nc3n[nH]c4ccc(Cc5cc(F)cc(F)c5)cc34)c(NC3CCOCC3)c2)CC1)NCCNc1cccc2c1C(=O)N(C1CCC(=O)NC1=O)C2=O` (stereo not shown) [CPD-062, N-(5-(3,5-Difluorobenzyl)-1H-indazol-3-yl)-4-(4-(2-((2-((2-(2,6-dioxopiperidin-3-yl)-1,3-dioxoisoindolin-4-yl)amino)ethyl)amino)-2-oxoethyl)piperazin-1-yl)-2-((tetrahydro-2H-pyran-4-yl)amino)benzamide], the percent degradation of TPM3-TRKA protein at 0.01 µM was greater than 80%.

For `O=C(CN1CCN(c2ccc(C(=O)Nc3n[nH]c4ccc(Cc5cc(F)cc(F)c5)cc34)c(NC3CCOCC3)c2)CC1)NCCOCCOCCOCCNc1cccc2c1C(=O)N(C1CCC(=O)NC1=O)C2=O` (stereo not drawn) [CPD-064, N—(S-(3,5-Difluorobenzyl)-1H-indazol-3-yl)-4-(4-(14-((2-(2,6-dioxopiperidin-3-yl)-1,3-dioxoisoindolin-4-yl)amino)-2-oxo-6,9,12-trioxa-3-azatetradecyl)piperazin-1-yl)-2-((tetrahydro-2H-pyran-4-yl)amino)benzamide], the percent degradation of TPM3-TRKA protein at 0.01 µM was greater than 80%.

On to `O=C(CN1CCN(c2ccc(C(=O)Nc3n[nH]c4ccc(Cc5cc(F)cc(F)c5)cc34)c(NC3CCOCC3)c2)CC1)NCCOCCOCCOCCOCCOCCNc1cccc2c1C(=O)N(C1CCC(=O)NC1=O)C2=O` (stereo not shown) [CPD-065, N-(5-(3,5-Difluorobenzyl)-1H-indazol-3-yl)-4-(4-(20-((2-(2,6-dioxopiperidin-3-yl)-1,3-dioxoisoindolin-4-yl)amino)-2-oxo-6,9,12,15,18-pentaoxa-3-azaicosyl)piperazin-1-yl)-2-((tetrahydro-2H-pyran-4-yl)amino)benzamide], for which the percent degradation of TPM3-TRKA protein at 0.01 µM is greater than 80%.
